# Columns and labels:
# [1] = test system: A549 lung adenocarcinoma cells; experiment: Amino acid uptake and inhibition in A549 cells; type: cell-based, human; settings: A549, 30 minutes incubation
# A549 tumor xenograft = experiment: Biodistribution in A549 tumor-bearing SCID mice; type: in vivo; settings: listed as (R)-[^18F] FAMP 1
# U87 tumor xenograft = experiment: Biodistribution in U87 tumor-bearing SCID mice; type: in vivo; settings: listed as (R)-[^18F] FAMP 1
# [2] = test system: MDA MB468 tumor xenograft; experiment: Biodistribution in MDA MB468 tumor-bearing SCID mice; type: in vivo
# [3] = test system: SCID mice xenograft tumor models; type: in vivo; settings: in most cases, over tumors and time points
# [4] = test system: rat orthotopic brain tumor model; settings: rat orthotopic brain tumor model, 60 min; cited from earlier work
# [5] = 15 min post injection, listed as (R)-[^18F] FAMP 1
# [6] = 30 min post injection, listed as (R)-[^18F] FAMP 1
# [7] = 60 min post injection, listed as (R)-[^18F] FAMP 1
# [8] = 120 min post injection, listed as (R)-[^18F] FAMP 1
smiles,measurement,setting,value
CC(N)(C[18F])C(=O)O [(R)-[^18F]1] [2-amino-3-[^18F]fluoro-2-methylpropanoic acid],Cell uptake,[1]; 10 mM BCH,2.3±0.3 % ID/5×10^5 cells
same,Cell uptake,[1]; 10 mM MeAIB,4.6±0.5 % ID/5×10^5 cells
same,Cell uptake,[1]; Control (no inhibitor),5.1±0.3 % ID/5×10^5 cells
same,uptake in blood,A549 tumor xenograft; 15 min post injection,2.9±0.4 %ID/g
same,uptake in bone,A549 tumor xenograft; 15 min post injection,2.6±0.6 %ID/g
same,uptake in brain,A549 tumor xenograft; 15 min post injection,0.8±0.2 %ID/g
same,uptake in heart,A549 tumor xenograft; 15 min post injection,4.4±01.0 %ID/g
same,uptake in kidney,A549 tumor xenograft; 15 min post injection,18±3.5 %ID/g
same,uptake in liver,A549 tumor xenograft; 15 min post injection,4.8±0.5 %ID/g
same,uptake in lung,A549 tumor xenograft; 15 min post injection,5.0±0.9 %ID/g
same,uptake in muscle,A549 tumor xenograft; 15 min post injection,2.0±0.4 %ID/g
same,uptake in pancreas,A549 tumor xenograft; 15 min post injection,54±14 %ID/g
same,uptake in spleen,A549 tumor xenograft; 15 min post injection,9.5±3.9 %ID/g
same,uptake in tumor,A549 tumor xenograft; 15 min post injection,9.9±1.7 %ID/g
same,uptake in blood,A549 tumor xenograft; 30 min post injection,2.0±0.2 %ID/g
same,uptake in bone,A549 tumor xenograft; 30 min post injection,2.3±0.6 %ID/g
same,uptake in brain,A549 tumor xenograft; 30 min post injection,0.9±0.2 %ID/g
same,uptake in heart,A549 tumor xenograft; 30 min post injection,3.5±1.0 %ID/g
same,uptake in kidney,A549 tumor xenograft; 30 min post injection,10±1.9 %ID/g
same,uptake in liver,A549 tumor xenograft; 30 min post injection,5.7±1.2 %ID/g
same,uptake in lung,A549 tumor xenograft; 30 min post injection,3.1±1.0 %ID/g
same,uptake in muscle,A549 tumor xenograft; 30 min post injection,2.0±0.6 %ID/g
same,uptake in pancreas,A549 tumor xenograft; 30 min post injection,43±11 %ID/g
same,uptake in spleen,A549 tumor xenograft; 30 min post injection,7.8±1.6 %ID/g
same,uptake in tumor,A549 tumor xenograft; 30 min post injection,7.5±1.9 %ID/g
same,uptake in blood,A549 tumor xenograft; 60 min post injection,1.3±0.1 %ID/g
same,uptake in bone,A549 tumor xenograft; 60 min post injection,2.0±0.6 %ID/g
same,uptake in brain,A549 tumor xenograft; 60 min post injection,1.1±0.3 %ID/g
same,uptake in heart,A549 tumor xenograft; 60 min post injection,3.5±0.9 %ID/g
same,uptake in kidney,A549 tumor xenograft; 60 min post injection,6.6±1.0 %ID/g
same,uptake in liver,A549 tumor xenograft; 60 min post injection,5.3±1.1 %ID/g
same,uptake in lung,A549 tumor xenograft; 60 min post injection,2.3±0.5 %ID/g
same,uptake in muscle,A549 tumor xenograft; 60 min post injection,1.8±0.2 %ID/g
same,uptake in pancreas,A549 tumor xenograft; 60 min post injection,28±6.3 %ID/g
same,uptake in spleen,A549 tumor xenograft; 60 min post injection,5.1±1.8 %ID/g
same,uptake in tumor,A549 tumor xenograft; 60 min post injection,7.7±1.9 %ID/g
same,uptake in blood,A549 tumor xenograft; 120 min post injection,1.3±0.9 %ID/g
same,uptake in bone,A549 tumor xenograft; 120 min post injection,2.2±1.1 %ID/g
same,uptake in brain,A549 tumor xenograft; 120 min post injection,1.8±0.9 %ID/g
same,uptake in heart,A549 tumor xenograft; 120 min post injection,3.9±1.5 %ID/g
same,uptake in kidney,A549 tumor xenograft; 120 min post injection,5.5±3.1 %ID/g
same,uptake in liver,A549 tumor xenograft; 120 min post injection,7.1±2.4 %ID/g
same,uptake in lung,A549 tumor xenograft; 120 min post injection,1.9±0.6 %ID/g
same,uptake in muscle,A549 tumor xenograft; 120 min post injection,2.3±1.2 %ID/g
same,uptake in pancreas,A549 tumor xenograft; 120 min post injection,20±7.1 %ID/g
same,uptake in spleen,A549 tumor xenograft; 120 min post injection,4.9±3.1 %ID/g
same,uptake in tumor,A549 tumor xenograft; 120 min post injection,8.8±4.8 %ID/g
same,uptake in blood,U87 tumor xenograft; 15 min post injection,3.2±0.2 %ID/g
same,uptake in bone,U87 tumor xenograft; 15 min post injection,3.2±1.5 %ID/g
same,uptake in brain,U87 tumor xenograft; 15 min post injection,0.8±0.2 %ID/g
same,uptake in heart,U87 tumor xenograft; 15 min post injection,4.7±1.2 %ID/g
same,uptake in kidney,U87 tumor xenograft; 15 min post injection,23±2.5 %ID/g
same,uptake in liver,U87 tumor xenograft; 15 min post injection,7.6±2.9 %ID/g
same,uptake in lung,U87 tumor xenograft; 15 min post injection,4.7±0.6 %ID/g
same,uptake in muscle,U87 tumor xenograft; 15 min post injection,2.2±0.5 %ID/g
same,uptake in pancreas,U87 tumor xenograft; 15 min post injection,62±6.3 %ID/g
same,uptake in spleen,U87 tumor xenograft; 15 min post injection,19±6.4 %ID/g
same,uptake in tumor,U87 tumor xenograft; 15 min post injection,6.5±1.2 %ID/g
same,uptake in blood,U87 tumor xenograft; 30 min post injection,2.6±0.7 %ID/g
same,uptake in bone,U87 tumor xenograft; 30 min post injection,3.5±0.5 %ID/g
same,uptake in brain,U87 tumor xenograft; 30 min post injection,0.9±0.2 %ID/g
same,uptake in heart,U87 tumor xenograft; 30 min post injection,4.3±0.6 %ID/g
same,uptake in kidney,U87 tumor xenograft; 30 min post injection,15±2.1 %ID/g
same,uptake in liver,U87 tumor xenograft; 30 min post injection,7.7±1.5 %ID/g
same,uptake in lung,U87 tumor xenograft; 30 min post injection,3.4±0.5 %ID/g
same,uptake in muscle,U87 tumor xenograft; 30 min post injection,2.2±0.5 %ID/g
same,uptake in pancreas,U87 tumor xenograft; 30 min post injection,43±8.2 %ID/g
same,uptake in spleen,U87 tumor xenograft; 30 min post injection,13±2.4 %ID/g
same,uptake in tumor,U87 tumor xenograft; 30 min post injection,6.0±0.9 %ID/g
same,uptake in blood,U87 tumor xenograft; 60 min post injection,1.6±0.4 %ID/g
same,uptake in bone,U87 tumor xenograft; 60 min post injection,3.2±0.8 %ID/g
same,uptake in brain,U87 tumor xenograft; 60 min post injection,1.2±0.2 %ID/g
same,uptake in heart,U87 tumor xenograft; 60 min post injection,4.2±0.9 %ID/g
same,uptake in kidney,U87 tumor xenograft; 60 min post injection,8.0±1.8 %ID/g
same,uptake in liver,U87 tumor xenograft; 60 min post injection,6.9±1.4 %ID/g
same,uptake in lung,U87 tumor xenograft; 60 min post injection,2.4±0.6 %ID/g
same,uptake in muscle,U87 tumor xenograft; 60 min post injection,2.9±0.6 %ID/g
same,uptake in pancreas,U87 tumor xenograft; 60 min post injection,28±5.0 %ID/g
same,uptake in spleen,U87 tumor xenograft; 60 min post injection,7.0±1.4 %ID/g
same,uptake in tumor,U87 tumor xenograft; 60 min post injection,4.2±0.3 %ID/g
same,uptake in blood,U87 tumor xenograft; 120 min post injection,0.8±0.1 %ID/g
same,uptake in bone,U87 tumor xenograft; 120 min post injection,1.5±0.2 %ID/g
same,uptake in brain,U87 tumor xenograft; 120 min post injection,1.2±0.1 %ID/g
same,uptake in heart,U87 tumor xenograft; 120 min post injection,3.6±0.4 %ID/g
same,uptake in kidney,U87 tumor xenograft; 120 min post injection,4.2±0.4 %ID/g
same,uptake in liver,U87 tumor xenograft; 120 min post injection,8.0±0.7 %ID/g
same,uptake in lung,U87 tumor xenograft; 120 min post injection,1.3±0.2 %ID/g
same,uptake in muscle,U87 tumor xenograft; 120 min post injection,1.6±0.2 %ID/g
same,uptake in pancreas,U87 tumor xenograft; 120 min post injection,15.1±3.2 %ID/g
same,uptake in spleen,U87 tumor xenograft; 120 min post injection,3.5±0.4 %ID/g
same,uptake in tumor,U87 tumor xenograft; 120 min post injection,3.1±0.8 %ID/g
same,uptake in blood,[2]; [5],3.0±0.2 %ID/g
same,uptake in bone,[2]; [5],2.7±0.6 %ID/g
same,uptake in brain,[2]; [5],0.7±0.2 %ID/g
same,uptake in heart,[2]; [5],3.9±0.6 %ID/g
same,uptake in kidney,[2]; [5],17±2.3 %ID/g
same,uptake in liver,[2]; [5],4.4±0.9 %ID/g
same,uptake in lung,[2]; [5],5.4±0.6 %ID/g
same,uptake in muscle,[2]; [5],2.2±0.8 %ID/g
same,uptake in pancreas,[2]; [5],61±8.4 %ID/g
same,uptake in spleen,[2]; [5],8.7±2.2 %ID/g
same,uptake in tumor,[2]; [5],6.0±1.8 %ID/g
same,uptake in blood,[2]; [6],2.0±0.4 %ID/g
same,uptake in bone,[2]; [6],2.2±0.6 %ID/g
same,uptake in brain,[2]; [6],0.8±0.1 %ID/g
same,uptake in heart,[2]; [6],3.5±1.0 %ID/g
same,uptake in kidney,[2]; [6],9.1±2.8 %ID/g
same,uptake in liver,[2]; [6],4.5±1.0 %ID/g
same,uptake in lung,[2]; [6],3.3±1.1 %ID/g
same,uptake in muscle,[2]; [6],2.0±0.6 %ID/g
same,uptake in pancreas,[2]; [6],39±11 %ID/g
same,uptake in spleen,[2]; [6],6.5±1.1 %ID/g
same,uptake in tumor,[2]; [6],5.3±1.7 %ID/g
same,uptake in tumor,[2]; 60 min post injection,4.8±1.2 %ID/g
same,uptake in blood,[2]; [7],1.1±0.3 %ID/g
same,uptake in bone,[2]; [7],1.7±0.5 %ID/g
same,uptake in brain,[2]; [7],0.8±0.1 %ID/g
same,uptake in heart,[2]; [7],3.3±0.8 %ID/g
same,uptake in kidney,[2]; [7],5.0±1.1 %ID/g
same,uptake in liver,[2]; [7],3.8±0.9 %ID/g
same,uptake in lung,[2]; [7],2.2±0.5 %ID/g
same,uptake in muscle,[2]; [7],2.0±0.6 %ID/g
same,uptake in pancreas,[2]; [7],20±7.2 %ID/g
same,uptake in spleen,[2]; [7],4.1±1.3 %ID/g
same,uptake in blood,[2]; [8],0.5±0.2 %ID/g
same,uptake in bone,[2]; [8],1.1±0.5 %ID/g
same,uptake in brain,[2]; [8],0.9±0.1 %ID/g
same,uptake in heart,[2]; [8],2.3±0.4 %ID/g
same,uptake in kidney,[2]; [8],2.4±1.1 %ID/g
same,uptake in liver,[2]; [8],4.1±0.8 %ID/g
same,uptake in lung,[2]; [8],1.1±0.4 %ID/g
same,uptake in muscle,[2]; [8],1.6±0.6 %ID/g
same,uptake in pancreas,[2]; [8],11±4.6 %ID/g
same,uptake in spleen,[2]; [8],2.2±1.1 %ID/g
same,uptake in tumor,[2]; [8],3.6±0.7 %ID/g
same,ratio of tumor to muscle,[3],above 2.5
same,brain uptake,[4],0.1±0.02 %ID/g
